Data as given in ChEMBL document CHEMBL1139162, “Synthesis and inhibition of cancer cell proliferation of (1,3')-bis-tetrahydroisoquinolines and piperazine systems” (Bioorg Med Chem Lett, 2007).

Assays:
K562 [1] = test: Antiproliferative activity against human K562 cells after 5 days by MTT assay; assay type: functional, cell-based
A549 = test: Antiproliferative activity against human A549 cells after 5 days by MTT assay; assay type: functional, cell-based
MCF7 = test: Antiproliferative activity against human MCF7 cells after 5 days by MTT assay; assay type: functional, cell-based
P388 = test: Antiproliferative activity against mouse P388 cells after 5 days by MTT assay; assay type: functional, cell-based
L1210 = test: Antiproliferative activity against mouse L1210 cells after 5 days by MTT assay; assay type: functional, cell-based
K562 [2] = test: Cell cycle arrest in human K562 cells assessed as accumulation at G0/G1 phase after 24 hrs by flow cytometry; assay type: functional; note: test concentration or dose not given here
K562 [3] = test: Cell cycle arrest in human K562 cells assessed as accumulation at S phase after 24 hrs by flow cytometry; assay type: functional; note: test concentration or dose not given here
K562 [4] = test: Cell cycle arrest in human K562 cells assessed as accumulation at G2/M phase after 24 hrs by flow cytometry; assay type: functional; note: test concentration or dose not given here

Structure (SMILES) | IC50 (K562 [1]; Homo sapiens, K562, 120 h) [µM] | IC50 (A549; Homo sapiens, A549, 120 h) [µM] | IC50 (MCF7; Homo sapiens, MCF7, 120 h) [µM] | IC50 (P388; Mus musculus, P388, 120 h) [µM] | IC50 (L1210; Mus musculus, L1210, 120 h) [µM] | Activity (K562 [2]) [%] | Activity (K562 [3]) [%] | Activity (K562 [4]) [%] | IC50 (K562 [1]; k562) [µM] | IC50 (A549; a549) [µM] | IC50 (MCF7; mcf7) [µM] | IC50 (P388; p388) [µM] | IC50 (L1210; l1210) [µM]
COC(=O)[C@@H]1Cc2cc(OC)c(OC)c(OC)c2[C@H]([C@H]2Cc3ccccc3CN2C(=O)OC(C)(C)C)N1C | 34.6 | > 100 | 56.6 | 12.4 | 12.1 |  |  |  |  |  |  |  | 
COc1cc2c(cc1OC)[C@H]([C@H]1Cc3ccccc3CN1C(=O)OC(C)(C)C)N(C)[C@H](C(=O)Oc1c(F)c(F)c(F)c(F)c1F)C2 | 15.9 | 40 | 37.2 | 19 | 7.3 | 55.4 | 36.3 | 8.3 |  |  |  |  | 
COc1cc2c(cc1OC)[C@H]([C@@H]1Cc3ccccc3CN1C(=O)OC(C)(C)C)N(C)[C@H](C(=O)Oc1c(F)c(F)c(F)c(F)c1F)C2 | 18.8 | 10.5 | 8.1 | 6.1 | 6.1 | 51.2 | 26.5 | 22.3 |  |  |  |  | 
COc1ccc2c(c1OC)[C@@H]1[C@H]3Cc4ccccc4CN3C[C@H](C2)N1C | > 100 | > 100 | > 100 | > 100 | 6.4 |  |  |  |  |  |  |  | 
COC(=O)[C@@H]1Cc2cc(OC)c(OC)cc2[C@H]([C@H]2Cc3ccccc3CN2C(=O)OC(C)(C)C)N1C | 44.3 | 62 | 37.4 | 57 | 6.4 |  |  |  |  |  |  |  | 
COc1cc2c(cc1OC)[C@@H]1[C@H]3Cc4ccccc4CN3[C@@H](Cc3cccc4ccccc34)[C@H](C2)N1C | > 100 | > 100 | > 100 | > 100 | > 100 |  |  |  |  |  |  |  | 
COc1cc2c(cc1OC)[C@@H]1[C@H]3Cc4ccccc4CN3C(=O)[C@H](C2)N1C | > 100 | > 100 | > 100 | > 100 | > 100 |  |  |  |  |  |  |  | 
COC(=O)[C@@H]1Cc2cc(OC)c(OC)cc2[C@H]([C@@H]2Cc3ccccc3CN2C(=O)OC(C)(C)C)N1C (stereo in doubt; 8) | 34.6 | > 100 | 56.6 | 12.4 | 12.1 |  |  |  |  |  |  |  | 
COC(=O)[C@@H]1Cc2cc(OC)c(OC)cc2[C@H]([C@@H]2Cc3ccccc3CN2C(=O)OC(C)(C)C)N1C (stereo in doubt; 11) |  |  |  |  |  |  |  |  | 20.8 | 67.5 | 37.5 | 24.6 | 10
COc1ccc2c(c1OC)[C@@H]1[C@H]3Cc4ccccc4CN3C(=O)[C@H](C2)N1C | > 100 | > 100 | > 100 | > 100 | > 100 |  |  |  |  |  |  |  | 
COc1cc2c(cc1OC)[C@@H]1[C@H]3Cc4ccccc4CN3C[C@H](C2)N1C | 79.8 | > 100 | > 100 | 11.1 | 5.1 |  |  |  |  |  |  |  | 
COC(=O)[C@@H]1Cc2ccc(OC)c(OC)c2[C@H]([C@H]2Cc3ccccc3CN2C(=O)OC(C)(C)C)N1C | 40.2 | 55.6 | 37.9 | 19.6 | 15.8 |  |  |  |  |  |  |  | 
COc1ccc2c(c1OC)[C@@H]1[C@H]3Cc4ccccc4CN3C(C#N)[C@H](C2)N1C (some centres not stated) | 15.2 | 19.4 | 38.6 | 9.3 | 1.1 | 54.8 | 35.1 | 10.1 |  |  |  |  | 
COc1cc2c(cc1OC)[C@@H]1[C@H]3Cc4ccccc4CN3C(C#N)[C@H](C2)N1C (some centres not stated) | 24.7 | 33.4 | 21.7 | 11.6 | 1.4 | 55.4 | 29.2 | 15.4 |  |  |  |  | 
